From patent US12458581B2, “Carboxylic acid loaded salt carrier and the method for producing thereof” (priority 2021, dated 2025) come the findings set out here.

One data set can be described thus: pH measurement of 0.1 M aqueous solutions. The class given is physicochemical. The conditions noted are these: 0.1 M in millipore water, r.t., average of at least three measurements. An excerpt: For the pH measurements, a Seven2Go portable pH meter S2 (pH measuring-range: −2 to 20; resolution: 0.01) with an InLab Ultra Micro-ISM electrode (measuring range: pH −1 to pH 11; low temperature membrane glass type; ceramic diaphragm; reference system with Ag^+ ion trap by argenthal) as well as with an in-lab routine pH electrode (measuring range: pH 0 to pH 14; ceramic diaphragm; reference system with Ag^+ ion trap by argenthal) from Mettler-Toledo AG (Analytical, Switzerland) was used.
For sake of comparability, compounds of the same loading ratio n=2, which is 2:1 of the loaded carboxylic acid with respect to the carrier carboxylic acid, were selected for this analysis. […] The analytes were dissolved in millipore water, stirred for 5 minutes in an airtight vial to perform the pH measurements thereafter at r.t. All measurements were performed at 0.1 molar (M) concentration of the samples, which is 0.1 mol per liter (mol/L).
For sake of reliability, every result stated is the average of at least three single measurements. […] The numbers 1-73 (nr., first row) are used as an assignment for the 73 pairs, comprising the compound of invention (third row), the corresponding carrier carboxylic acid (fourth row) and the loaded carboxylic acid (fifth row), as used in the FIG. 6.
Compound `CC(=O)O.CC(=O)O.CC(=O)O.CC(=O)[O-].CC(=O)[O-].[Ca+2]` [CaAc-HAc [3]] registered a pH values compound of 4.62.
The same measure, in the same setting: in the case of `CC(=O)[O-].CC(=O)[O-].CCC(=O)O.CCC(=O)O.[Ca+2]` [CaAc-HProp [2]] it was 5.16; in that of `CC(=O)O.CC(=O)O.O=C1OC(C(O)CO)C([O-])=C1O.O=C1OC(C(O)CO)C([O-])=C1O.[Ca+2]` (stereo not shown) [CaAsc-HAc [2], calcium ascorbate with loaded acetic acid], 4.42; in that of `CC(=O)O.CC(=O)O.CC(=O)O.O=C1OC(C(O)CO)C([O-])=C1O.O=C1OC(C(O)CO)C([O-])=C1O.[Ca+2]` (stereo not shown) [CaAsc-HAc [3], calcium ascorbate with loaded acetic acid], 4.22.
`CC(=O)O.CC(=O)O.CC(=O)O.CC(=O)O.O=C1OC(C(O)CO)C([O-])=C1O.O=C1OC(C(O)CO)C([O-])=C1O.[Ca+2]` (stereo not shown) [CaAsc-HAc [4]]: the pH values compound worked out at 4.22.
The same measure, in the same setting: in the case of `CC(=O)O.CC(=O)O.CC(=O)O.CC(=O)O.CC(=O)O.CC(=O)O.O=C1OC(C(O)CO)C([O-])=C1O.O=C1OC(C(O)CO)C([O-])=C1O.[Ca+2]` (stereo not shown) [CaAsc-HAc [6]] it was 4.12.
Still for that read-out and setting: as for `CCC(=O)O.CCC(=O)O.O=C1OC(C(O)CO)C([O-])=C1O.O=C1OC(C(O)CO)C([O-])=C1O.[Ca+2]` (stereo not shown) [CaAsc-HProp [2], calcium ascorbate with loaded propionic acid], the figure is 4.88.
In the case of `CC(=O)O.CC(=O)O.NC(CC(=O)[O-])C(=O)[O-].[Ca+2]` (stereo not shown) [CaAsp-HAc [2]], the pH values compound was 4.42.
On the same count and under the same terms, in the case of `NC(CC(=O)[O-])C(=O)[O-].O=C(O)CO.O=C(O)CO.[Ca+2]` (stereo not shown) [CaAsp-HGly [2]] it was 3.88.
The same measure, in the same setting: in the case of `CC(=O)O.CC(=O)O.O=C([O-])c1ccccc1.O=C([O-])c1ccccc1.[Ca+2]` [CaBen-HAc [2]] it was 4.46.
Same read-out and setting: in the case of `CCC(=O)O.CCC(=O)O.O=C([O-])c1ccccc1.O=C([O-])c1ccccc1.[Ca+2]` [CaBen-HProp [2]] it was 4.64; in that of `CC(=O)O.CC(=O)O.O=C[O-].O=C[O-].[Ca+2]` [CaFo-HAc [2]], 4.74; in that of `CC(=O)O.CC(=O)O.O=C([O-])/C=C/C(=O)[O-].[Ca+2]` [CaFum-HAc [2]], 4.17.
Consider `O=C([O-])/C=C/C(=O)[O-].O=CO.O=CO.[Ca+2]` [CaFum-HFo [2]], for which the pH values compound is on record as 3.58.
On the same count and under the same terms, in the case of `CC(O)C(=O)O.CC(O)C(=O)O.O=C([O-])/C=C/C(=O)[O-].[Ca+2]` [CaFum-HLac [2]] it was 3.68; in that of `CCC(=O)O.CCC(=O)O.O=C([O-])/C=C/C(=O)[O-].[Ca+2]` [CaFum-HProp [2]], 4.27.
On the same count and under the same terms, as for `CC(=O)O.CC(=O)O.NC(CCC(=O)[O-])C(=O)[O-].[Ca+2]` (stereo not shown) [CaGlu-HAc [2]], the figure is 4.52; as for `CC(O)C(=O)O.CC(O)C(=O)O.CC(O)C(=O)O.CC(O)C(=O)O.NC(CCC(=O)[O-])C(=O)[O-].[Ca+2]` (stereo not shown) [CaGlu-HLac [4]], 3.60.
As for `CCC(=O)O.CCC(=O)O.O=C([O-])CO.O=C([O-])CO.[Ca+2]` [CaGly-HProp [2]], the pH values compound turned out to be 4.63.
In turn, `CC(=O)O.CC(=O)O.CC(O)C(=O)[O-].CC(O)C(=O)[O-].[Ca+2]` (stereo not shown) [CaLac-HAc [2]] displayed a pH values compound of 4.58.
On the same count and under the same terms, in the case of `CC(O)C(=O)O.CC(O)C(=O)O.CC(O)C(=O)[O-].CC(O)C(=O)[O-].[Ca+2]` (stereo not shown) [CaLac-HLac [2]] it was 3.45; in that of `CC(O)C(=O)O.CC(O)C(=O)O.CC(O)C(=O)O.CC(O)C(=O)[O-].CC(O)C(=O)[O-].[Ca+2]` (stereo not shown) [CaLac-HLac [3]], 3.38.
For the compound `CC(O)C(=O)O.CC(O)C(=O)O.CC(O)C(=O)O.CC(O)C(=O)O.CC(O)C(=O)[O-].CC(O)C(=O)[O-].[Ca+2]` (stereo not shown) [CaLac-HLac [4]], the pH values compound stood at 3.30.
Same read-out and setting: in the case of `CCC(=O)O.CCC(=O)O.O=C([O-])CC(O)C(=O)[O-].[Ca+2]` (stereo not shown) [CaM-HProp [2]] it was 4.45; in that of `CC(=O)O.CC(=O)O.O=C([O-])CC(O)C(=O)[O-].[Ca+2]` (stereo not shown) [CaMa-HAc [2]], 4.53; in that of `CC(=O)O.CC(O)C(=O)O.CCC(=O)O.O=C([O-])CC(O)C(=O)[O-].[Ca+2]` (stereo not shown) [CaMa-HAc-HProp-HLac [1,1,1]], 4.97.
Take `CC(=O)O.CC(=O)O.O=C([O-])CCC(=O)[O-].[Ca+2]` [CaSuc-HAc [2]]: the pH values compound stood at 4.69.
On the same count and under the same terms, in the case of `CCC(=O)O.CCC(=O)O.O=C([O-])CCC(=O)[O-].[Ca+2]` [CaSuc-HProp [2]] it was 5.01.
The same measure, in the same setting: as for `CC(=O)O.CC(=O)O.CC(=O)O.CC(=O)O.O=C([O-])C(O)C(O)C(=O)[O-].[Ca+2]` (stereo not shown) [CaT-HAc [4], calcium tartrate with loaded acetic acid], the figure is 3.33; as for `CC(=O)O.CC(=O)O.CC(=O)O.CC(=O)O.CC(=O)O.O=C([O-])C(O)C(O)C(=O)[O-].[Ca+2]` (stereo not shown) [CaT-HAc [5]], 3.84; as for `CC(=O)O.CC(O)C(=O)O.CCC(=O)O.O=C([O-])C(O)C(O)C(=O)[O-].[Ca+2]` (stereo not shown) [CaT-HAc-HPro-HLac [1,1,1]], 3.33.
The same measure, in the same setting: in the case of `CC(O)C(=O)O.CC(O)C(=O)O.O=C([O-])C(O)C(O)C(=O)[O-].[Ca+2]` (stereo not shown) [CaT-HLac [2], calcium tartrate with loaded lactic acid] it was 3.27; in that of `CCC(=O)O.CCC(=O)O.O=C([O-])C(O)C(O)C(=O)[O-].[Ca+2]` (stereo not shown) [CaT-HProp [2], calcium tartrate with loaded propionic acid], 3.71.
Regarding `CC(=O)O.CC(=O)O.CC(=O)[O-].CC(=O)[O-].[Mg+2]` [MgAc-HAc [2]], the pH values compound worked out at 5.06.
Turning to `CC(=O)[O-].CC(=O)[O-].CCC(=O)O.CCC(=O)O.[Mg+2]` [MgAc-HProp [2]], the pH values compound was found to be 5.51.
The same measure, in the same setting: in the case of `CC(=O)O.CC(=O)O.O=C1OC(C(O)CO)C([O-])=C1O.O=C1OC(C(O)CO)C([O-])=C1O.[Mg+2]` (stereo not shown) [MgAsc-HAc [2]] it was 4.34; in that of `CC(=O)O.CC(=O)O.O=C[O-].O=C[O-].[Mg+2]` [MgFo-HAc [2], magnesium formate with loaded acetic acid], 5.10.
Compound `O=CO.O=CO.O=C[O-].O=C[O-].[Mg+2]` [MgFo-HFo [2]] returned a pH values compound of 6.54.
Still for that read-out and setting: in the case of `CC(O)C(=O)O.CC(O)C(=O)O.O=C[O-].O=C[O-].[Mg+2]` (stereo not shown) [MgFo-HLac [2]] it was 3.72.
On the same count and under the same terms, as for `CC(=O)O.CC(=O)O.O=C([O-])/C=C/C(=O)[O-].[Mg+2]` [MgFum-HAc [2]], the figure is 4.13.
Take `O=C([O-])/C=C/C(=O)[O-].O=CO.O=CO.[Mg+2]` [MgFum-HFo [2]]: the pH values compound came to 3.76.
The same measure, in the same setting: as for `CC(O)C(=O)O.CC(O)C(=O)O.O=C([O-])/C=C/C(=O)[O-].[Mg+2]` [MgFum-HLac [2]], the figure is 3.69.
Same read-out and setting: as for `CCC(=O)O.CCC(=O)O.O=C([O-])/C=C/C(=O)[O-].[Mg+2]` [MgFum-HProp [2]], the figure is 4.24.

The data set is the same for the next values; noted with them: 0.1 M, r.t.; compound made via in-situ process.
As to `CC(=O)O.CC(=O)O.CC(=O)O.CC(=O)O.O=C([O-])C(O)C(O)C(=O)[O-].[Ca+2]` (stereo not shown) [CaT-HAc [4], calcium tartrate with loaded acetic acid], the pH value is on record as 3.33.
The same measure, in the same setting: as for `CC(O)C(=O)O.CC(O)C(=O)O.O=C([O-])C(O)C(O)C(=O)[O-].[Ca+2]` (stereo not shown) [CaT-HLac [2], calcium tartrate with loaded lactic acid], the figure is 3.27; as for `CC(=O)O.CC(=O)O.O=C[O-].O=C[O-].[Mg+2]` [MgFo-HAc [2], magnesium formate with loaded acetic acid], 5.10.
